Like-named read-outs stand apart in the source and are kept apart here.

For this assay, the system named is Mycosphaerella graminicola; Anamorph: Septoria tritici; Bayer Code SEPTTR. Nature of the assay: Leaf blotch of wheat, foliar fungicide treatment, one day protectant (1DP) or three day curative (3DC). The conditions noted are these: Zymoseptoria tritici; for pest or weed control at 200 ppm / pest or weed control at 50 ppm: % disease control rating. Type of assay: in vivo, Septoria tritici on wheat plants (variety Yuma).

Where [1] appears, read: 24 h, one day protectant (1DP), 25 ppm, rating of percent disease control, read-out: SETTTR 1DP 25 ppm.
The mark [2] stands for this setting: 24 h, one day protectant (1DP), rating of percent disease control, read-out: SEPTTR 1DP 100 ppm.
The mark [3] stands for this setting: 72 h, three day curative (3DC), 25 ppm, rating of percent disease control, read-out: SEPTTR 3DC 25 ppm.
[4] abbreviates: 72 h, three day curative (3DC), rating of percent disease control, read-out: SEPTTR 3DC 100 ppm.
[5] abbreviates: 24 h, one day protectant (1DP), 25 ppm (first 1DP column), percent control rating, read-out: SETTTR 1DP 25 ppm.
[6] abbreviates: 24 h, one day protectant (1DP), 25 ppm as printed (second 1DP column), percent control rating, read-out: SETTTR 1DP 25 ppm.
[7] abbreviates: 72 h, three day curative (3DC), 25 ppm, percent control rating, read-out: SEPTTR 3DC 25 ppm.
Setting [8] is: 72 h, three day curative (3DC), percent control rating, read-out: SEPTTR 3DC 100 ppm.
The mark [9] stands for this setting: 24 h, one day protectant, 25 ppm, rating of percent disease control, read-out: SETTTR 1DP 25 ppm.
The mark [10] stands for this setting: 24 h, one day protectant, rating of percent disease control, read-out: SEPTTR 1DP 100 ppm.
Where [11] appears, read: 72 h, three day curative, 25 ppm, rating of percent disease control, read-out: SEPTTR 3DC 25 ppm.
Where [12] appears, read: 72 h, three day curative, rating of percent disease control, read-out: SEPTTR 3DC 100 ppm.
Setting [13] is: 24 h, one day protectant (1DP), 25 ppm, percent disease control rating, read-out: SETTTR 1DP 25 ppm.
Where [14] appears, read: 24 h, one day protectant (1DP), percent disease control rating, read-out: SEPTTR 1DP 100 ppm.
Where [15] appears, read: 72 h, three day curative (3DC), 25 ppm, percent disease control rating, read-out: SEPTTR 3DC 25 ppm.
[16] abbreviates: 72 h, three day curative (3DC), percent disease control rating, read-out: SEPTTR 3DC 100 ppm.

For `COCCCOc1ncc(F)c(N)n1` [Compound 315], the pest or weed control at 25 ppm runs as follows: under setting [1], 51 to 75%; under setting [3], 76 to 100%. The pest or weed control at 100 ppm is, setting by setting: under setting [2], 76 to 100%; under setting [4], 76 to 100%.

`CCOC(=O)CNC(=O)Nc1nc(O)ncc1F` [Compound 976]: the pest or weed control at 25 ppm under setting [5] lay in the range of 0 to 25%, the pest or weed control at 25 ppm under setting [6] is 0 to 25% and the pest or weed control at 25 ppm under setting [7] is 0 to 25%. The pest or weed control at 100 ppm under setting [8] was in the range of 0 to 25%.

Regarding `Cc1c(F)c(F)c(COc2ncc(F)c(N)n2)c(F)c1F` [Compound 500], the pest or weed control at 25 ppm under setting [1] lay within 76 to 100% and the pest or weed control at 25 ppm under setting [3] is 76 to 100%. In addition, the pest or weed control at 100 ppm runs as follows: under setting [2], 76 to 100%; under setting [4], 76 to 100%.

In the case of `COc1ncc(F)c(NNc2ccccc2Cl)n1` [Compound 1034], the pest or weed control at 25 ppm by setting is: under setting [5], 0 to 25%; under setting [6], 0 to 25%; under setting [7], 0 to 25%. For the same compound, the pest or weed control at 100 ppm under setting [8] was 0 to 25%.

`NNc1nc(OCc2ccccc2)ncc1F` [Compound 258]: the pest or weed control at 25 ppm lay in the range of 51 to 75% under setting [1] and 26 to 50% under setting [3]. The pest or weed control at 100 ppm is, setting by setting: under setting [2], 76 to 100%; under setting [4], 51 to 75%.

`Fc1ccc(COc2ncc(F)c(NCc3cccs3)n2)c(F)c1` [Compound 923] returned a pest or weed control at 200 ppm (24 h, one day protectant) of 76 to 100%.

`CN1CCCC/C1=N\c1nc(OCc2ccccc2)ncc1F` [Compound 421]: the pest or weed control at 25 ppm lay in the range of 76 to 100% under setting [1] and 76 to 100% under setting [3]. Besides, the pest or weed control at 100 ppm was 76 to 100% under setting [2] and 76 to 100% under setting [4].

As to `CCc1ccccc1COc1ncc(F)c(N)n1` [Compound 286], the pest or weed control at 25 ppm lay in the range of 76 to 100% under setting [1] and 51 to 75% under setting [3]. Further, the pest or weed control at 100 ppm lay within 76 to 100% under setting [2] and 76 to 100% under setting [4].

`Fc1cnc(OCc2ccccc2Cl)nc1NCc1ccc(Cl)cc1` [Compound 879]: where the note is “24 h, one day protectant”, the pest or weed control at 50 ppm fell in the range of 76 to 100% and the pest or weed control at 200 ppm is 76 to 100%.

On to `Cc1ccc(COc2ncc(F)c(NCc3ccc(Cl)cc3)n2)cc1` [Compound 892], for which, under “24 h, one day protectant”, the pest or weed control at 50 ppm fell in the range of 51 to 75% and the pest or weed control at 200 ppm was 76 to 100%.

With `Cc1cc(C)nc(NNc2nc(OCc3ccccc3)ncc2F)n1` [Compound 470], the pest or weed control at 25 ppm was 0 to 25% under setting [1] and 26 to 50% under setting [3]. The pest or weed control at 100 ppm reads like this: under setting [2], 0 to 25%; under setting [4], 26 to 50%.

Consider `Fc1ccccc1CNc1nc(OCc2cccc(Cl)c2)ncc1F` [Compound 924], for which, for the setting “24 h, one day protectant”, the pest or weed control at 50 ppm was 76 to 100% and the pest or weed control at 200 ppm lay within 76 to 100%.

Regarding `CCCCCNC(=O)Nc1nc(O)ncc1F` [Compound 972], the pest or weed control at 25 ppm runs as follows: under setting [5], 51 to 75%; under setting [6], 76 to 100%; under setting [7], 51 to 75%. In addition, the pest or weed control at 100 ppm under setting [8] is 51 to 75%.

Under “24 h, one day protectant”, `Cc1cnc(CNc2nc(OCc3ccc(F)cc3)ncc2F)cn1` [Compound 900] displayed a pest or weed control at 50 ppm of 51 to 75% and a pest or weed control at 200 ppm of 76 to 100%.

Take `Nc1nc(OCc2cc(F)c(F)c(F)c2F)ncc1F` [Compound 693]: the pest or weed control at 25 ppm is, setting by setting: under setting [9], 76 to 100%; under setting [11], 76 to 100%. For the same compound, the pest or weed control at 100 ppm under setting [10] was 76 to 100% and the pest or weed control at 100 ppm under setting [12] was 76 to 100%.

`Cn1ccc(COc2ncc(F)c(NC(=O)Nc3ccccc3F)n2)n1` [Compound 81]: the pest or weed control at 25 ppm is, setting by setting: under setting [13], 0 to 25%; under setting [15], 0 to 25%. Further, the pest or weed control at 100 ppm was 0 to 25% under setting [14] and 0 to 25% under setting [16].

`O=C(NNc1nc(OCc2ccccc2)ncc1F)c1ccccc1` [Compound 293]: the pest or weed control at 25 ppm was in the range of 0 to 25% under setting [1] and 0 to 25% under setting [3]. The pest or weed control at 100 ppm by setting is: under setting [2], 0 to 25%; under setting [4], 0 to 25%.

With `CCOC(=O)C(=O)Nc1nc(OCc2ccc(C)cc2)ncc1F` [Compound 553], the pest or weed control at 25 ppm runs as follows: under setting [9], 76 to 100%; under setting [11], 76 to 100%. Further, the pest or weed control at 100 ppm was in the range of 76 to 100% under setting [10] and 76 to 100% under setting [12].

With `Nc1nc(ON=C(C2CC2)C2CC2)ncc1F` [Compound 998], the pest or weed control at 25 ppm is, setting by setting: under setting [5], 76 to 100%; under setting [6], 76 to 100%; under setting [7], 76 to 100%. Also, the pest or weed control at 100 ppm under setting [8] is 76 to 100%.

`COc1cccc(COc2ncc(F)c(NOCc3ccccc3)n2)c1` [Compound 594]: the pest or weed control at 25 ppm fell in the range of 0 to 25% under setting [9] and 0 to 25% under setting [11]. For the same compound, the pest or weed control at 100 ppm under setting [10] is 51 to 75% and the pest or weed control at 100 ppm under setting [12] fell in the range of 26 to 50%.

Regarding `Cc1ccc(CN(C)c2nc(O)ncc2F)cc1` [Compound 1069], the pest or weed control at 25 ppm by setting is: under setting [5], 0 to 25%; under setting [6], 0 to 25%; under setting [7], 51 to 75%. Also, the pest or weed control at 100 ppm under setting [8] is 51 to 75%.

Consider `CN(C)/C=N/c1nc(OC(=O)OCC(Cl)(Cl)Cl)ncc1F` [Compound 634], for which the pest or weed control at 25 ppm lay within 76 to 100% under setting [9] and 76 to 100% under setting [11]. Besides, the pest or weed control at 100 ppm by setting is: under setting [10], 76 to 100%; under setting [12], 76 to 100%.

Regarding `O=C(Nc1nc(OCc2ccc(F)cc2)ncc1F)C(F)F` [Compound 501], the pest or weed control at 25 ppm by setting is: under setting [1], 76 to 100%; under setting [3], 76 to 100%. The pest or weed control at 100 ppm under setting [2] was in the range of 76 to 100% and the pest or weed control at 100 ppm under setting [4] was 76 to 100%.

As to `Cc1nc(C)c(COc2ncc(F)c(N)n2)s1` [Compound 772], the pest or weed control at 25 ppm is 76 to 100% under setting [1] and 76 to 100% under setting [3]. The pest or weed control at 100 ppm is 76 to 100% under setting [2] and 76 to 100% under setting [4].

For the compound `O=C(Nc1cccs1)Nc1nc(OCc2ccc(F)cc2)ncc1F` [Compound 376], the pest or weed control at 25 ppm runs as follows: under setting [1], 0 to 25%; under setting [3], 0 to 25%. Moreover, the pest or weed control at 100 ppm under setting [2] lay within 0 to 25% and the pest or weed control at 100 ppm under setting [4] fell in the range of 26 to 50%.

In turn, `Fc1cnc(OCc2ccncc2)nc1NCc1cccs1` [Compound 902] came in with a pest or weed control at 200 ppm (24 h, one day protectant) of 76 to 100%.

Consider `Nc1nc(OCc2ccc(OC(F)(F)F)cc2)ncc1F` [Compound 596], for which the pest or weed control at 25 ppm under setting [9] fell in the range of 76 to 100% and the pest or weed control at 25 ppm under setting [11] was in the range of 76 to 100%. Also, the pest or weed control at 100 ppm was in the range of 76 to 100% under setting [10] and 76 to 100% under setting [12].

Regarding `CCOCNc1nc(OCc2cccc(OC)c2)ncc1F` [Compound 601], the pest or weed control at 25 ppm is, setting by setting: under setting [9], 76 to 100%; under setting [11], 76 to 100%. Further, the pest or weed control at 100 ppm lay in the range of 76 to 100% under setting [10] and 76 to 100% under setting [12].

As for `COc1ccc(C(=O)Oc2ncc(F)c(/N=C/N(C)C)n2)cc1` [Compound 636], the pest or weed control at 25 ppm is, setting by setting: under setting [9], 76 to 100%; under setting [11], 76 to 100%. The pest or weed control at 100 ppm under setting [10] is 76 to 100% and the pest or weed control at 100 ppm under setting [12] lay in the range of 76 to 100%.

On to `CC(C)(C)OC(=O)Nc1nc(OCc2ccc(F)cc2)ncc1F` [Compound 101], for which the pest or weed control at 25 ppm under setting [13] lay within 51 to 75% and the pest or weed control at 25 ppm under setting [15] is 0 to 25%. Moreover, the pest or weed control at 100 ppm was in the range of 51 to 75% under setting [14] and 0 to 25% under setting [16].

For `CC(=O)Nc1nc(OCc2ccc(C)cc2)ncc1F` [Compound 179], the pest or weed control at 25 ppm lay within 76 to 100% under setting [13] and 76 to 100% under setting [15]. Also, the pest or weed control at 100 ppm is, setting by setting: under setting [14], 76 to 100%; under setting [16], 76 to 100%.

As to `Cc1ccc(COc2ncc(F)c(NS(C)(=O)=O)n2)cc1` [Compound 38, N-[5-Fluoro-2-(4-methylbenzyloxy)pyrimidin-4-yl]methanesulfonamide], the pest or weed control at 25 ppm was in the range of 26 to 50% under setting [13] and 0 to 25% under setting [15]. The pest or weed control at 100 ppm reads like this: under setting [14], 26 to 50%; under setting [16], 26 to 50%.

In the case of `CCOCNc1nc(OCc2ccccc2)ncc1F` [Compound 753], the pest or weed control at 25 ppm was in the range of 76 to 100% under setting [1] and 76 to 100% under setting [3]. For the same compound, the pest or weed control at 100 ppm by setting is: under setting [2], 76 to 100%; under setting [4], 76 to 100%.

Take `N#Cc1cccc(COc2ncc(F)c(NC(=O)NCc3ccccc3F)n2)c1` [Compound 34, 1-[2-(3-Cyanobenzyloxy)-5-fluoropyrimidin-4-yl]-3-(2-fluorobenzyl)urea]: the pest or weed control at 25 ppm by setting is: under setting [13], 0 to 25%; under setting [15], 0 to 25%. The pest or weed control at 100 ppm reads like this: under setting [14], 0 to 25%; under setting [16], 0 to 25%.

The record behind these values is US9204653B2, “5-fluoro pyrimidine derivatives” (DOW AGROSCIENCES LLC, priority 2008, dated 2015).
